The text below walks through data of US9980894B2, “Cosmetic compositions comprising hyaluronan biosynthesis promoting agents” (Symrise AG, priority 2012, dated 2018).

Entries after “also recorded” stand apart in the source; their conditions may differ. Read-outs that look alike come from different tables or passages of the source.

The subject of assay [1] is Normal Human Dermal Fibroblasts (NHDF). Nature of the assay: Cellular in vitro hyaluronan assay on normal human dermal fibroblasts (hyaluronic acid ELISA). The note with it: for Mean hyaluronan stimulation compared with positive control TGF-b1: cassione 0.25 μM, [6]-paradol 0.025 μM versus TGF-b1 1 ng/ml; for Effect on hyaluronan production of dermal fibroblasts (in words): in vitro; for Mean hyaluron stimulation vs. control: 16 h. In kind it is cell-based. The protocol:
(§1) NHDF are seeded into a 24 well plate at a concentration of 1.5×10^4 cells/well. Cells are incubated at 37° C. and 5% CO2 in fibroblast medium containing 10% fetal bovine serum (FBS) until they are 70-80% confluent. Then the medium is withdrawn, cells are washed with PBS and the test compounds dissolved in fibroblast medium without FBS are added. After incubation for 16 h in the presence of the test compounds, the culture medium is collected and hyaluronan is determined by a hyaluronic acid ELISA detection kit (Corgenix) which is performed according to the supplier instructions. The stimulation of the hyaluronan biosynthesis in the presence of the test compounds is calculated according to the following equation: Hyaluronan stimulation [%]=([…]×100)−100 with • HAcontrol=hyaluronan content in ng/ml of the medium from cells treated with control • HAtest compound=hyaluronan content in ng/ml of the medium from cells treated with test compound
(In an ELISA, binding on a coated surface is turned into a signal by an enzyme label.)

The subject of assay [2] is Normal Human Epidermal Keratinocytes (NHEK). Nature of the assay: Cellular in vitro hyaluronan assay on normal human epidermal keratinocytes (hyaluronic acid ELISA). In kind it is cell-based. The conditions noted are these: for Mean hyaluronan stimulation, fold less than that of the positive control retinol: compounds at 0.25 μM versus retinol at 0.1 μM; for Effect on hyaluronan production of epidermal keratinocytes (in words): in vitro; for Mean hyaluron stimulation vs. control: 16 h. The protocol:
as §1, with “NHEK” for “NHDF”, “2.5×10^4” for “1.5×10^4”, “keratinocyte” for “fibroblast”, “medium” for “medium containing 10% fetal bovine serum (FBS)”, “medium” for “medium without FBS”

A further assay concerns B16 melanoma cell line. The note with it: cited from earlier work.
For another assay, the system named is ex vivo human skin. Nature of the assay: Hyaluronan assay on ex vivo human skin (Alcain blue staining, image analysis). In kind it is cell-based. The source says: Human skin obtained from plastic surgery is cut into pieces of approximately 7×3 mm (diameter×thickness). 6 skin samples are used for each treatment. The skin samples are placed on a cotton pad soaked with culture medium (modified Williams'E medium). Control and hydrodispersion gels (as described in more detail below) without (=placebo) and with the test compound, respectively, are applied topically on day 0 and the application is renewed on day 1. On day 2, skin samples are fixed, histological sections are prepared and subsequent histochemically stained by Alcain blue. After that, pictures are taken from each section and dermal and epidermal hyaluronan is quantified by image analysis of a selected region of interest. To do so, the histochemical staining is divided in three different color channels with an algorithm specific for Alcain blue staining and the distribution and intensity of the blue colour channel which is specific for hyaluronan is analysed. Hyaluronan stimulation [%]=([…]×100)−100 with • HAcontrol=hyaluronan score of the skin sample treated with control • HAtest compound=hyaluron score of the skin sample treated with test compound
The hydrodispersion gels used had the composition as set out in Table 4: […]

Setting [3] is: listed as compound of formula IV.
[4] abbreviates: 0.0001% [6]-paradol containing gel versus placebo gel.
Setting [5] is: 0.0001 % in hydrodispersion gel, topical on day 0 and day 1, analysed day 2.

Take `CC(=O)CCc1ccc2c(c1)OCO2` [Cassione, 4-(3,4-methylendioxyphenyl)-2-butanone]: in assay [1], the “Mean hyaluronan stimulation compared with positive control TGF-b1” value is “comparable” and the “Effect on hyaluronan production of dermal fibroblasts (in words)” value (from here on “Effect … of dermal fibroblasts (in words)”) is recorded as “enhance the hyaluronan production; also recorded: potently enhance”. The “Mean hyaluron stimulation vs. control” value in assay [1] (test concentration 0.25 μM) was 41.0 ± 6.0%. In addition, in assay [2], the “Mean hyaluronan stimulation, fold less than that of the positive control retinol” value amounted to 1.9 fold and the “Effect on hyaluronan production of epidermal keratinocytes (in words)” value (“Effect … of epidermal keratinocytes (in words)” below) is reported as “enhance the hyaluronan production; also recorded: potently enhance”. The “Mean hyaluron stimulation vs. control” value in assay [2] (test concentration 0.25 μM) worked out at 37.0 ± 8.0%. The “inhibition (skin lightening, in vitro efficacy)” value with B16 melanoma cell line (26 μM (5 μg/ml)) is given as 15%. Also, in the assay on B16 melanoma cell line (520 μM (100 μg/ml)), the “inhibition (skin lightening, in vitro efficacy)” value was 87%.
Consider `COc1cc(CCC(=O)c2ccc(O)cc2)ccc1O` [Compound of formula IV, 3-(4-Hydroxy-3-methoxyphenyl)-1-(4-hydroxyphenyl)-1-propanone], for which the figures for the “Effect … of dermal fibroblasts (in words)” value in assay [1] (setting [3]) and in assay [1] (listed as formula IV) were “no stimulatory activity” and “no direct stimulating effect on dermal fibroblasts”, respectively. Moreover, the “Mean hyaluron stimulation vs. control” value in assay [1] (test concentration 0.25 μM) is listed as −5.5 ± 2.5%; in assay [2] (test concentration 0.25 μM), 50.5 ± 26.5%. Further, the “Mean hyaluronan stimulation, fold less than that of the positive control retinol” value in assay [2] was found to be 1.4 fold. The “Effect … of epidermal keratinocytes (in words)” value in assay [2] (setting [3]) was “enhance the hyaluronan production”; in assay [2] (listed as formula IV) it was “powerfully upregulates HA synthesis”.
For the molecule `CC1=C(/C=C/C(C)=C/C=C/C(C)=C/C(=O)O)C(C)(C)CCC1` [Retinoic acid, reference compound], the entries for the “Mean hyaluron stimulation vs. control” value in assay [1] (test concentration 0.1 μM) and in assay [2] (test concentration 0.1 μM) were −13.0 ± 18.0% and 116.1 ± 37.3%, respectively.
As for `CC1=C(/C=C/C(C)=C/C=C/C(C)=C/CO)C(C)(C)CCC1` [Retinol, reference compound], the “Effect … of dermal fibroblasts (in words)” value in assay [1] is given as “no stimulatory activity”. The results for the “Mean hyaluron stimulation vs. control” value in assay [1] (test concentration 0.1 μM) and in assay [2] (test concentration 0.1 μM) were 2.0% and 70.8 ± 33.3%, respectively.
With `COc1cc(CCC(C)=O)ccc1O` [Zingerone, 4-(4-hydroxy-3-methoxyphenyl)-2-butanone], in assay [1], the “Effect … of dermal fibroblasts (in words)” value is “enhance the hyaluronan production; also recorded: increases HA biosynthesis”. The “Mean hyaluron stimulation vs. control” value in assay [1] (test concentration 0.25 μM) came to 15.0 ± 5.3%. Also, in assay [2], the “Mean hyaluronan stimulation, fold less than that of the positive control retinol” value came to 1.6 fold and the “Effect … of epidermal keratinocytes (in words)” value is listed as “enhance the hyaluronan production; also recorded: more pronounced effect on epidermal keratinocytes”. Besides, the “Mean hyaluron stimulation vs. control” value in assay [2] (test concentration 0.25 μM) was 45.0 ± 24.7%.
Regarding `CCCCCCCC(=O)CCc1ccc(O)c(OC)c1` [[6]-Paradol, Heptyl 4-hydroxy-3-methoxyphenethyl ketone], in assay [1], the “Mean hyaluronan stimulation compared with positive control TGF-b1” value is recorded as “comparable” and the “Effect … of dermal fibroblasts (in words)” value was “enhance the hyaluronan production; also recorded: potently stimulates”. The “Mean hyaluron stimulation vs. control” value in assay [1] (test concentration 0.025 μM) worked out at 38.0 ± 9.0%. In addition, in assay [2], the “Effect … of epidermal keratinocytes (in words)” value is “no stimulatory activity; also recorded: without any direct stimulating effect on epidermal keratinocytes”. For the same molecule, the “Mean hyaluron stimulation vs. control” value in assay [2] (test concentration 0.025 μM) was −3.0 ± 3.0%. In the assay on ex vivo human skin (setting [4]), the “Mean HA stimulation versus placebo, dermal HA” value is listed as 250% and the “Mean HA stimulation versus placebo, epidermal HA” value was found to be 124%. For the same molecule, in the assay on ex vivo human skin (setting [5]), the “Mean hyaluronan stimulation vs. control [%] Dermal” value is on record as 124% and the “Mean hyaluronan stimulation vs. control [%] Epidermal” value was determined as 51%. For the same molecule, the “Effect on dermal and epidermal hyaluronan level of ex vivo human skin (in words)” value in the assay on ex vivo human skin (0.0001%, 2 days of topical treatment) is recorded as “significantly stimulates”.
As for “TGF-b1: Transforming growth factor (TGF)-beta1, positive control known to increase HA synthesis in dermal fibroblasts”, the “Mean hyaluron stimulation vs. control” value in assay [1] (test concentration 1 ng/ml) is on record as 39.7 ± 13.9%; in assay [2] (test concentration 1 ng/ml), −31.0%. Besides, in assay [2], the “Effect … of epidermal keratinocytes (in words)” value was “no stimulatory activity”.
